Assay results as given in US10689395B2, “Tricyclic fused pyridin-2-one derivatives and their use as BRD4 inhibitors” (JUBILANT BIOSYS LIMITED, priority 2015, dated 2020).
Where two headings read alike, the source gives them in different places.

Legend:
MV4-11 cells = test: Anticancer activity: Alamar Blue assay, 3-day proliferation; assay type: cell-based; details: AML cell line MV4-11, 72 h, read-out: MV4-11 EC50_μM
Protocol: Anticancer Activity: Alamar Blue Assay
The impact of the compounds on cancer cell proliferation was determined using the AML cell line MV4-11 (ATCC) in a 3-day proliferation assay. MV4-11 cells were maintained in RPMI supplemented with 10% FBS at 37° C., 5% CO2. For compound testing, MV4-11 cells were plated in a 96-well black bottom plate at a density of 15,000 cells/well in 100 μL culture media and incubated at 37° C. overnight. Compound dilution series were prepared in DMSO via a 3-fold serial dilution from 100 μM to 0.005 μM. The DMSO dilution series were then diluted with media, with the final compound concentrations added to the wells ranging from 10 μM to 0.0005 μM. […] The fluorescent readings from the Alamar Blue assay were normalized to the DMSO treated cells and analyzed using the GraphPad Prism software with sigmoidal curve fitting to obtain EC50.

BRD4-BD1 = BRD4-BD1 (Homo sapiens (Human), UniProt O60885); test: BRD4 AlphaLISA (Perkin Elmer); assay type: binding; details: 5 nM BRD4-BD1, 12 nM biotinylated substrate, read-out: BRD4_BD1 IC50_μM
Protocol: BRD4 AlphaLISA (Perkin Elmer)
Compounds were diluted by step-down dilution method (final concentration of DMSO was 1%) and added to the wells of a 384 well opti plate at desired concentrations. 5 nM BDR4-BD1 enzyme (produced in-house) and 12 nM of biotinylated substrate were added to the wells, covered and incubated at room temperature (RT) for 1 h. At the end of 1 h 250 ng of GSH acceptor beads were added to the well and incubated for 1 h at RT; then 500 ng of streptavidin donor beads were added and incubated again for 1 h at RT. Plates were read in a Pherastar reader at 680 nm excitation and 570 nm emission. As detailed above, compounds were tested for both BRD4 enzyme inhibitory activities and IC50 were determined.

EC50 (MV4-11 cells) [nM]	IC50 (BRD4-BD1) [nM]	EC50 (MV4-11 cells; Homo sapiens) [nM]	SMILES
< 0.5	1	–	CCNC(=O)CC1OC(c2ccc(Cl)cc2)c2c(sc(C)c2C)-c2cn(C)c(=O)cc21 (racemic) [bb, ±2-(4-(4-chlorophenyl)-2,3,9-trimethyl-8-oxo-4,6,8,9-tetrahydrothieno[2′,3′:5,6]oxepino[4,3-c]pyridin-6-yl)-N-ethylacetamide]
430	140	–	CCOC(=O)CC1N=C(c2ccc(Cl)cc2)c2nc(C)sc2-c2cn(C)c(=O)cc21 (racemic) [l, ±Ethyl 2-(4-(4-chlorophenyl)-2,9-dimethyl-8-oxo-8,9-dihydro-6H-pyrido[4,3-c]thiazolo[5,4-e]azepin-6-yl)acetate]
< 0.5	1	–	CCNC(=O)CC1OC(c2ccc(Cl)cc2)c2c(cnn2C)-c2cn(C)c(=O)cc21 (racemic) [ll, ±2-(4-(4-chlorophenyl)-3,9-dimethyl-8-oxo-4,6,8,9-tetrahydro-3H-pyrazolo[4′,3′:5,6]oxepino[4,3-c]pyridin-6-yl)-N-ethylacetamide]
–	2.2	10	CCNC(=O)CC1N=C(c2ccc(Cl)cc2)c2c(sc(C)c2C)-c2cn(C)c(=O)cc21 (racemic) [b, ±2-(4-(4-chlorophenyl)-2,3,9-trimethyl-8-oxo-8,9-dihydro-6H-pyrido[4,3-c]thieno[2,3-e]azepin-6-yl)-N-ethylacetamide]
–	5	53	CCNC(=O)C[C@@H]1N=C(c2ccc(Cl)cc2)c2c(cnn2C)-c2cn(C)c(=O)cc21 [z, (S)-2-(4-(4-chlorophenyl)-3,9-dimethyl-8-oxo-3,6,8,9-tetrahydropyrazolo[3,4-c]pyrido[3,4-e]azepin-6-yl)-N-ethylacetamide]
157	10	–	CCNC(=O)CC1N=C(CC2CC2)c2c(sc(C)c2C)-c2cn(C)c(=O)cc21 (racemic) [r, ±2-(4-(cyclopropylmethyl)-2,3,9-trimethyl-8-oxo-8,9-dihydro-6H-pyrido[4,3-c]thieno[2,3-e]azepin-6-yl)-N-ethylacetamide]
–	17	–	Cc1sc2c(c1C)C(c1ccc(Cl)cc1)OC(CCO)c1cc(=O)n(C)cc1-2 (racemic) [hh, ±4-(4-chlorophenyl)-6-(2-hydroxyethyl)-2,3,9-trimethyl-4,9-dihydrothieno[2′,3′:5,6]oxepino[4,3-c]pyridin-8(6H)-one]
–	33	–	Cc1sc2c(c1C)C(c1ccc(Cl)cc1)=NC(CC(=O)Nc1ccc(O)cc1)c1cc(=O)n(C)cc1-2 (racemic) [h, ±2-(4-(4-chlorophenyl)-2,3,9-trimethyl-8-oxo-8,9-dihydro-6H-pyrido[4,3-c]thieno[2,3-e]azepin-6-yl)-N-(4-hydroxyphenyl)acetamide]
–	2	7	Cc1sc2c(c1C)C(c1ccc(Cl)cc1)=NC(CC(N)=O)c1cc(=O)n(C)cc1-2 (racemic) [e, ±2-(4-(4-chlorophenyl)-2,3,9-trimethyl-8-oxo-8,9-dihydro-6H-pyrido[4,3-c]thieno[2,3-e]azepin-6-yl)acetamide]
–	< 0.5	25	CCNC(=O)CC1N=C(c2ccc(C#N)cc2)c2c(sc(C)c2C)-c2cn(C)c(=O)cc21 (stereo in doubt) [k, (R)-2-(4-(4-cyanophenyl)-2,3,9-trimethyl-8-oxo-8,9-dihydro-6H-pyrido[4,3-c]thieno[2,3-e]azepin-6-yl)-N-ethylacetamide]
17	2	–	CCNC(=O)CC1N=C(c2ccc(Cl)cc2)c2cc(OC)ncc2-c2cn(C)c(=O)cc21 (racemic) [t, ±2-(7-(4-chlorophenyl)-9-methoxy-2-methyl-3-oxo-3,5-dihydro-2H-dipyrido[4,3-c:3′,4′-e]azepin-5-yl)-N-ethylacetamide]
140	1	–	CCNC(=O)CC1N=C(c2ccc(Cl)cc2)c2nc(C)sc2-c2cn(C)c(=O)cc21 (racemic) [m, ±2-(4-(4-chlorophenyl)-2,9-dimethyl-8-oxo-8,9-dihydro-6H-pyrido[4,3-c]thiazolo[5,4-e]azepin-6-yl)-N-ethylacetamide]
26	10	–	CCOC(=O)CC1N=C(c2ccc(Cl)cc2)c2c(cnn2C)-c2cn(C)c(=O)cc21 (racemic) [w, ±Ethyl 2-(4-(4-chlorophenyl)-3,9-dimethyl-8-oxo-3,6,8,9-tetrahydropyrazolo[3,4-c]pyrido[3,4-e]azepin-6-yl)acetate]
–	2	7	Cc1sc2c(c1C)C(c1ccc(Cl)cc1)OC(CC(N)=O)c1cc(=O)n(C)cc1-2 (racemic) [ee, ±2-(4-(4-chlorophenyl)-2,3,9-trimethyl-8-oxo-4,6,8,9-tetrahydrothieno[2′,3′:5,6]oxepino[4,3-c]pyridin-6-yl)acetamide]
